Results taken from patent publication US11389449B2, “Treatment of metabolic syndrome with an sGC stimulator” (Cyclerion Therapeutics, Inc., priority 2017, dated 2022).

Columns and labels:
[1] = system: patients with stable type 2 diabetes and hypertension; assay: Open-label Phase 2a trial of escalating doses (NCT02906579), metabolic assessments and tolerability; assay type: in vivo, human; settings: for Change Serum Insulin, Mean / Change Serum Insulin, Median: fasting
Description: The primary objectives of this clinical study (ClinicalTrials.gov Identifier: NCT02906579) were to assess the acute effects of escalating doses of Compound I on endothelial function (using EndoPAT™—Itamar Medical; Caesarea, Israel- to measure fingertip small vessel pulse volume), blood pressure, heart rate/pulse, safety and tolerability in patients with Type 2 diabetes and a history of hypertension. Patients in this trial were on stable medications for glucose control (blood glucose lowering medication) and hypertension (including an ARB or an ACEi). Secondary measurements included assessment of fasting glucose levels, fasting insulin levels, hemoglobin A1C (HbA1C) levels, serum cholesterol levels, serum triglyceride levels, BMI and body weight.
Allocation: non-randomized; Intervention Model: single group assignment; Masking: non (open-label), Primary purpose: treatment. Single cohort of 11 patients confined to unit. Single clinical site.
Clinic Period: The Clinic Period began at Check-in on Day-1 and ended at Discharge on Day 19. Patients who met eligibility criteria based on Screening Visit assessments were admitted to the Study Center on Day-1 for procedures to confirm eligibility and were confined to the Study Center until Discharge on Day 19. Patients received a standard diet for diabetics. On Days 1 to 18, following an overnight fast of ≥8 hours, eligible patients received once-daily study drug. Safety (adverse event [AE] collection, vital signs, fasting glucose, serum insulin, electro cardiograms [ECGs]) and pharmacokinetic (PK) assessments, including blood collections, were performed at pre-specified times daily (see Schedule of Events). Pharmacodynamic assessments was performed on a 3-day cycle that repeated for each of the 6 dosing cycles (see FIG. 29 and Schedule of Events): the first day included supine and standing cuff BP and pulse measurements; the second day include ambulatory BP monitoring (ABPM), and the third day will include EndoPAT assessments of endothelial function. In addition, blood samples were collected for optional determination of exploratory biomarkers, including metabolic markers associated with metabolic syndrome (see Schedule of Events). On Day 19, after assessments were completed, patients were discharged from the Study Center at the Investigator's discretion. Patients were rescreened should they discontinue in the Screening Period due to visit window deviations or other administrative reasons. In addition, laboratory values, ECG values, or BPs that were outside the range specified in the protocol were repeated to confirm eligibility during the screening period at the Investigator's discretion after consultation with the Medical Monitor.
Escalating single doses (in 3-day cycles) of 10, 20, 30, 40 or 50 mg of Compound I. Compound I has previously been described in WO2014144100. Metabolic parameters, including fasting serum glucose levels, fasting serum insulin levels, hemoglobin A1C (HhA1C) levels, serum lipid levels and body weight, were determined on the second day of each 3-day cycle.
Fasting glucose (mg/dL) was measured in serum both enzymatically. Insulin (pmol/L) was measured by ECLIA. Cholesterol (mg/dL) was measured enzymatically. Triglycerides (mg/dL) were measured enzymatically. HbA1c (%) was measured using Roche Tina Quant.
Compound I was administered as multiples of a 5-mg oral tablet dosage form. Placebo was administered as multiples of a 5 mg tablet. Compound I was formulated as a spray dried dispersion formulation as described in WO2017095697.
Patients received orally administered study drug at approximately the same time (±15 minutes) every day in the morning (8 to 10 AM), after an overnight fast of at least 8 hours. Patients took multiple tablets together as needed to complete the total dose. […]

[2] = system: obese/high fat diet C57Bl/6J mice; assay: Diet induced obesity (DIO) mouse model: body weight and food intake; assay type: in vivo; settings: DIO HFD mice, approx 6 mg/kg in diet
Description: (§1) The objective of this animal study was to evaluate the effects of Compound I in the mouse diet induced obesity (DIO) model. Assessments included body weight, food intake, oral glucose tolerance test (OGTT) and fasting plasma biomarkers of metabolic control.
(§2) Male C57Bl/6J mice with baseline body weights of 25.0-29.0 grams (lean controls) and 31.5-45.0 grams (obese/high fat diet treated) respectively, were used for this study. The lean mice (n=8) were maintained on a standard chow diet. The obese mice were given 60% high fat diet (HFD) starting at 6 weeks of age. All animals were allowed free access to drinking water and chow. The study was begun when the mice were 12 weeks of age and concluded after 4 weeks (16 weeks of age). The obese control group (n=8 mice) was maintained on HFD. The Compound I group (n=8 obese mice) was treated with HFD containing 90 mg Compound I/kg (an approximate dose of 6 mg/kg). Body weights were determined twice weekly and food intake was measured daily for 28 days. An OGTT was performed on each animal at day 28 or 29 and the animals were sacrificed on the following day. On the terminal day, 3 hour fasted blood was collected for compound concentrations and plasma biomarkers analysis including glucose, insulin and triglycerides. Organs were collected, weighed and snap frozen in liquid nitrogen for further analysis.

[3] = system: obese/high fat diet C57Bl/6J mice; assay: DIO mouse model: oral glucose tolerance test; assay type: in vivo; settings: DIO HFD mice, approx 6 mg/kg in diet, week 4
Description: as §1, §2

[4] = after escalation 10 to 50 mg over 15 days

Compound: OC(CNc1nc(-c2cc(-c3ccon3)n(Cc3ccccc3F)n2)ncc1F)(C(F)(F)F)C(F)(F)F [Compound I]
- Change Serum Insulin, Mean ([1]; 10 mg once daily cycle): 0.2 µIU/mL
- Change Serum Insulin, Median ([1]; 10 mg once daily cycle): -0.5 µIU/mL
- Change Serum Insulin, Mean ([1]; 20 mg once daily cycle): -0.4 µIU/mL
- Change Serum Insulin, Median ([1]; 20 mg once daily cycle): 0.1 µIU/mL
- Change Serum Insulin, Mean ([1]; 30 mg once daily cycle): -2.61 µIU/mL
- Change Serum Insulin, Median ([1]; 30 mg once daily cycle): -2 µIU/mL
- Change Serum Insulin, Mean ([1]; 40 mg once daily cycle): -2.49 µIU/mL
- Change Serum Insulin, Median ([1]; 40 mg once daily cycle): -1.9 µIU/mL
- Change Serum Insulin, Mean ([1]; 50 mg once daily cycle): -2.7 µIU/mL
- Change Serum Insulin, Median ([1]; 50 mg once daily cycle): -0.7 µIU/mL
- reduction in mean fasting glucose level between placebo cycle (day 2) and end of treatment ([1]; after escalation 10, 20, 30, 40, 50 mg single oral daily dose): 20%
- reduction in mean cholesterol level between baseline (day-1) and end of treatment [1, 4]: 23%
- reduction in serum TGs between day-1 (baseline) and day 19 [1, 4]: about 12%
- mean reduction of body weight ([1]; by end of treatment day 19): about 3.5 kg
- mean serum TG level ([1]; day 19): 122 mg/dL
- mean serum cholesterol level ([1]; day 19): 142 mg/dL
- Mean fasting glucose level ([1]; day 19 (end of treatment) after escalation 10 to 50 mg once daily): 114 mg/dL
- HbA1C mean reduction from baseline ([1]; day 19, actual HbA1C reading): 0.40%
- mean body weight relative to baseline (day-1) ([1]; each dosage 10 to 50 mg, cumulative over dose escalation): decreased for all dosages
- change between mean serum cholesterol value on day 19 (end of treatment) and day 32 ([1]; follow-up after end of dosing): +43.3 mg/dL
- tolerability ([1]; multiple dose escalation 10 to 50 mg once daily): well tolerated
- body weight gain change vs obese controls ([2]; Day 28, P<0.0001): −37%
- increase in food intake vs obese controls ([2]; Day 28, P<0.05): 11%
- cumulative food intake vs obese controls ([2]; days 12-14 and 16-28): Significant increases
- body weight gain vs obese controls ([2]; from 0.5 weeks for the duration of the study): significant reductions
- Fasting blood glucose [3]: not reduced
- OGTT area above baseline change vs obese controls ([3]; P<0.05): −47%
- OGTT area under the curve change vs obese controls ([3]; P<0.05): −22%
- blood glucose excursion in OGTT vs obese controls ([3]; from 30 to 120 minutes): significant reductions
